Measurements from PubChem BioAssay (NCI).
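48-hour exposure; five concentrations; linearly interpolated endpoints. Abbreviation: GI50, concentration required for 50% inhibition of growth. Definition used: TGI = concentration required for complete inhibition of growth.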

What was measured:
Experiment in all cases: growth of human tumour cells (NCI), 48 h
K-562 leukemia = test system: K-562 leukemia
HL-60(TB) leukemia = test system: HL-60(TB) leukemia
RPMI-8226 leukemia = test system: RPMI-8226 leukemia
ACHN renal = test system: ACHN renal
HS 578T breast = test system: HS 578T breast
SW-620 colon = test system: SW-620 colon
NCI-H460 lung = test system: NCI-H460 lung
M14 melanoma = test system: M14 melanoma
SNB-19 CNS = test system: SNB-19 CNS
HOP-92 NSCLC = test system: HOP-92 NSCLC
786-0 renal = test system: 786-0 renal
CAKI-1 renal = test system: CAKI-1 renal
OVCAR-3 ovarian = test system: OVCAR-3 ovarian
U251 CNS = test system: U251 CNS
UACC-257 melanoma = test system: UACC-257 melanoma
MOLT-4 leukemia = test system: MOLT-4 leukemia
IGROV1 ovarian = test system: IGROV1 ovarian
SK-OV-3 ovarian = test system: SK-OV-3 ovarian
OVCAR-4 ovarian = test system: OVCAR-4 ovarian
HCC-2998 colon = test system: HCC-2998 colon
HCT-116 colon = test system: HCT-116 colon
COLO 205 colon = test system: COLO 205 colon
HT29 colon = test system: HT29 colon
SF-295 CNS = test system: SF-295 CNS
MDA-MB-231 breast = test system: MDA-MB-231 breast
UO-31 renal = test system: UO-31 renal
A549 NSCLC = test system: A549 NSCLC
UACC-62 melanoma = test system: UACC-62 melanoma
SF-268 CNS = test system: SF-268 CNS
NCI-H23 lung = test system: NCI-H23 lung
MDA-MB-468 breast = test system: MDA-MB-468 breast
CCRF-CEM leukemia = test system: CCRF-CEM leukemia
SNB-75 CNS = test system: SNB-75 CNS
HOP-62 NSCLC = test system: HOP-62 NSCLC
SN12C renal = test system: SN12C renal
SK-MEL-2 melanoma = test system: SK-MEL-2 melanoma
DU-145 prostate = test system: DU-145 prostate
MCF7 breast = test system: MCF7 breast
HCT-15 colon = test system: HCT-15 colon
TK-10 renal = test system: TK-10 renal
BT-549 breast = test system: BT-549 breast
SF-539 CNS = test system: SF-539 CNS
PC-3 prostate = test system: PC-3 prostate
EKVX NSCLC = test system: EKVX NSCLC
NCI-H226 lung = test system: NCI-H226 lung
NCI-H522 lung = test system: NCI-H522 lung
OVCAR-5 ovarian = test system: OVCAR-5 ovarian
MALME-3M melanoma = test system: MALME-3M melanoma
SK-MEL-5 melanoma = test system: SK-MEL-5 melanoma
OVCAR-8 ovarian = test system: OVCAR-8 ovarian
A498 renal = test system: A498 renal
LOX IMVI melanoma = test system: LOX IMVI melanoma
T-47D breast = test system: T-47D breast
RXF 393 renal = test system: RXF 393 renal
MDA-MB-435 = test system: MDA-MB-435
SR leukemia = test system: SR leukemia
SK-MEL-28 melanoma = test system: SK-MEL-28 melanoma
NCI/ADR-RES ovarian = test system: NCI/ADR-RES ovarian
KM12 colon = test system: KM12 colon

FC(F)(F)c1cc2c(Cl)ncnc2n1CCC1CCOCC1
GI50 (K-562 leukemia): 2.84 µM
TGI (K-562 leukemia): 8.66 µM
GI50 (HL-60(TB) leukemia): 2.21 µM
TGI (HL-60(TB) leukemia): 5.07 µM
GI50 (RPMI-8226 leukemia): 14.6 µM
TGI (RPMI-8226 leukemia): 41.4 µM
GI50 (ACHN renal): 11.1 µM
TGI (ACHN renal): 26 µM
GI50 (HS 578T breast): 12.1 µM
TGI (HS 578T breast): 45.5 µM
GI50 (SW-620 colon): 11.9 µM
TGI (SW-620 colon): 28.5 µM
GI50 (NCI-H460 lung): 2.42 µM
TGI (NCI-H460 lung): 5.66 µM
GI50 (M14 melanoma): 3.76 µM
TGI (M14 melanoma): 16.2 µM
GI50 (SNB-19 CNS): 5.21 µM
TGI (SNB-19 CNS): 18.1 µM
GI50 (HOP-92 NSCLC): 13.9 µM
TGI (HOP-92 NSCLC): 32.3 µM
GI50 (786-0 renal): 16.1 µM
TGI (786-0 renal): 32.4 µM
GI50 (CAKI-1 renal): 14.6 µM
TGI (CAKI-1 renal): 30.2 µM
GI50 (OVCAR-3 ovarian): 12.2 µM
TGI (OVCAR-3 ovarian): 27.4 µM
GI50 (U251 CNS): 2.07 µM
TGI (U251 CNS): 5.58 µM
GI50 (UACC-257 melanoma): 3.56 µM
TGI (UACC-257 melanoma): 15.7 µM
GI50 (MOLT-4 leukemia): 2.35 µM
TGI (MOLT-4 leukemia): 5.45 µM
GI50 (IGROV1 ovarian): 1.78 µM
TGI (IGROV1 ovarian): 3.49 µM
GI50 (SK-OV-3 ovarian): 17.3 µM
TGI (SK-OV-3 ovarian): 33.3 µM
GI50 (OVCAR-4 ovarian): 18.5 µM
TGI (OVCAR-4 ovarian): 50.1 µM
GI50 (HCC-2998 colon): 1.63 µM
TGI (HCC-2998 colon): 3.03 µM
GI50 (HCT-116 colon): 2.36 µM
TGI (HCT-116 colon): 6.48 µM
GI50 (COLO 205 colon): 16.4 µM
TGI (COLO 205 colon): 37.2 µM
GI50 (HT29 colon): 13.9 µM
TGI (HT29 colon): 44.2 µM
GI50 (SF-295 CNS): 14 µM
TGI (SF-295 CNS): 27.9 µM
GI50 (MDA-MB-231 breast): 3.9 µM
TGI (MDA-MB-231 breast): 14 µM
GI50 (UO-31 renal): 1.79 µM
TGI (UO-31 renal): 3.79 µM
GI50 (A549 NSCLC): 22 µM
TGI (A549 NSCLC): 56.9 µM
GI50 (UACC-62 melanoma): 4.23 µM
TGI (UACC-62 melanoma): 15.7 µM
GI50 (SF-268 CNS): 2.45 µM
TGI (SF-268 CNS): 7.28 µM
GI50 (NCI-H23 lung): 2.59 µM
TGI (NCI-H23 lung): 10 µM
GI50 (MDA-MB-468 breast): 1.66 µM
TGI (MDA-MB-468 breast): 3.44 µM
GI50 (CCRF-CEM leukemia): 1.41 µM
TGI (CCRF-CEM leukemia): 4.56 µM
GI50 (SNB-75 CNS): 3.09 µM
TGI (SNB-75 CNS): 15.1 µM
GI50 (HOP-62 NSCLC): 17 µM
TGI (HOP-62 NSCLC): 35.1 µM
GI50 (SN12C renal): 6.67 µM
TGI (SN12C renal): 19.8 µM
GI50 (SK-MEL-2 melanoma): 13.2 µM
TGI (SK-MEL-2 melanoma): 28.2 µM
GI50 (DU-145 prostate): 4.35 µM
TGI (DU-145 prostate): 15.1 µM
GI50 (MCF7 breast): 11.5 µM
TGI (MCF7 breast): 36.4 µM
GI50 (HCT-15 colon): 2.93 µM
TGI (HCT-15 colon): 11 µM
GI50 (TK-10 renal): 17.4 µM
TGI (TK-10 renal): 36.7 µM
GI50 (BT-549 breast): 10.2 µM
TGI (BT-549 breast): 22.6 µM
GI50 (SF-539 CNS): 13.6 µM
TGI (SF-539 CNS): 27.7 µM
GI50 (PC-3 prostate): 2.97 µM
TGI (PC-3 prostate): 11.3 µM
GI50 (EKVX NSCLC): 12.6 µM
TGI (EKVX NSCLC): 28.5 µM
GI50 (NCI-H226 lung): 13.9 µM
TGI (NCI-H226 lung): 28.5 µM
GI50 (NCI-H522 lung): 1.68 µM
TGI (NCI-H522 lung): 3.68 µM
GI50 (OVCAR-5 ovarian): 24.1 µM
TGI (OVCAR-5 ovarian): 81.9 µM
GI50 (MALME-3M melanoma): 15.2 µM
TGI (MALME-3M melanoma): 29.2 µM
GI50 (SK-MEL-5 melanoma): 2.79 µM
TGI (SK-MEL-5 melanoma): 9.23 µM
GI50 (OVCAR-8 ovarian): 2.44 µM
TGI (OVCAR-8 ovarian): 7.33 µM
GI50 (A498 renal): 16.2 µM
TGI (A498 renal): 29.9 µM
GI50 (LOX IMVI melanoma): 1.63 µM
TGI (LOX IMVI melanoma): 2.99 µM
GI50 (T-47D breast): 20.2 µM
TGI (T-47D breast): 59.6 µM
GI50 (RXF 393 renal): 8.75 µM
TGI (RXF 393 renal): 22.1 µM
GI50 (MDA-MB-435): 5.01 µM
TGI (MDA-MB-435): 18.3 µM
GI50 (SR leukemia): 2.05 µM
TGI (SR leukemia): 5.32 µM
GI50 (SK-MEL-28 melanoma): 2.6 µM
TGI (SK-MEL-28 melanoma): 6 µM
GI50 (NCI/ADR-RES ovarian): 17 µM
TGI (NCI/ADR-RES ovarian): 35.1 µM
GI50 (KM12 colon): 16.3 µM
TGI (KM12 colon): 33.9 µM
